One data set concerns MDA-HGSC-1 PDX tumor. Put plainly: Subcutaneous MDA-HGSC-1 patient-derived xenograft model. It is filed as in vivo, mice. The settings on record: 300 µg/injection i.p., 14 doses (Fig. S10B). The source says:
Under Institutional Review Board (IRB protocol PA15-0441) and IACUC approval at MD Anderson Cancer Center, patients with HGSC who were being treated at MD Anderson gave consent for the use of their tumor tissue in this study. Four- to six-week-old female Balb C athymic nude mice (Harlan Laboratories) were implanted with one PDX 3×3×3 mm tumor cube (MDA-HGSOC-1 high-grade serous ovarian cancer; generation 9) in the dorsal flank to create subcutaneous HGSC-PDX model. Tumor size was monitored by caliber, and tumor volume was calculated using the formula V(cm^3) = (length x width^2)/2. Mice were randomly assigned to the PBS vehicle control or BIDEN-AP treatment group, 6 mice per group, once tumor size reached ~100 mm^3 (21 days after implantation). Treatments consisted of intraperitoneal injection of PBS or BIDEN-AP at 300 μg/injection (100 μL/injection) once every other day for a total of 14 doses. At the end of the study (day 49), all mice were euthanized, and tumors were collected, weighed, snap-frozen in optimal cutting temperature compound with liquid nitrogen, and cryosectioned into 5-μm sections for immunohistochemical staining of CD31 and Ki67 markers.
incubated overnight at 4°C.
Slides were subjected to recombinant terminal
The slides were then labeled by adding
Microvessel density was evaluated
magnification from three tumor samples.
For CD31 staining, slides were […]
(In general: In xenograft studies the graft and the host belong to different species.)

Data set [1] deals with T1, EphB4 on the surface of A2780cp20 cells (Homo sapiens, UniProt P54760).
T1 construct: endogenous in cells; host or cells: A2780cp20 ovarian cancer cells
T1 sequence (P54760 16-987): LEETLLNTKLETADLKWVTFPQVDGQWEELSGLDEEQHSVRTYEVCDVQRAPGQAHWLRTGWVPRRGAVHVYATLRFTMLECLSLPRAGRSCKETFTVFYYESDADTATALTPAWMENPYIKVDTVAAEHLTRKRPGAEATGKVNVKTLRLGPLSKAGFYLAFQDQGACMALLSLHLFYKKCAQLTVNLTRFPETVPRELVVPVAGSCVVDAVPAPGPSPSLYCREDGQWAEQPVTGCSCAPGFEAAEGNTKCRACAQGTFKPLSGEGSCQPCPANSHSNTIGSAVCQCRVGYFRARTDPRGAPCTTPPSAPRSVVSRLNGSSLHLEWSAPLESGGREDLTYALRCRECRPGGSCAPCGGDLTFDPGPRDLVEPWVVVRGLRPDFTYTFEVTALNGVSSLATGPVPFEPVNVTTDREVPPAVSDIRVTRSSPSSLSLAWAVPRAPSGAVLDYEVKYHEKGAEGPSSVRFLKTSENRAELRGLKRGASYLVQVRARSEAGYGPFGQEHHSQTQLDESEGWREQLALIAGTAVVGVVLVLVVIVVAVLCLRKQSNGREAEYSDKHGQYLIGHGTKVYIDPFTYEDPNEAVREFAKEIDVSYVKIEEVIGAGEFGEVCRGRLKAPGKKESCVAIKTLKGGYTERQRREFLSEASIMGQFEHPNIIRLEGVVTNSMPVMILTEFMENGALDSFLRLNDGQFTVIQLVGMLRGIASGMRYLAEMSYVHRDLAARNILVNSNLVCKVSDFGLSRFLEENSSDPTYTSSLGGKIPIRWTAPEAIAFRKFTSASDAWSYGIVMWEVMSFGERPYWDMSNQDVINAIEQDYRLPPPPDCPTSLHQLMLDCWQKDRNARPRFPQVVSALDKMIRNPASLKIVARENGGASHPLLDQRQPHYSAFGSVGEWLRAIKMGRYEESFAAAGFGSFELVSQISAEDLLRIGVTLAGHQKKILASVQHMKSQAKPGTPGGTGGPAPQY
Put plainly: Cell-based binding assay: displacement of EFNB2-Fc from A2780cp20 cells (flow cytometry). The note with it: EFNB2-Fc 20 nM, BIDEN-AP 0-100 µM, 25 °C, 1 h, PE-anti-Fc flow cytometry, duplicate (Fig. 1D,E). On the procedure: Figure 1 Novel EphB4 agonist BIDEN-AP has high receptor binding affinity. (A) Structure of BIDEN-AP. D-Tyr-P3 is highlighted in red. (B) Surface plasmon resonance (SPR) sensorgrams of BIDEN-AP. Vertical axes, in response units (RU), represent binding of the peptide to immobilized EphB4. (C) Competition of BIDEN-AP with EFNB2-Fc for EphB4 binding. BIDEN-AP at concentrations from 2 nM to 1000 nM was mixed with human EphB4 (30 nM) and injected onto sensor chips coated with EFNB2-Fc. (D) Competition of BIDEN-AP with EFNB2-Fc for EphB4 binding at the cellular level. A2780cp20 cells were co-incubated with EFNB2-Fc (20 nM) and BIDEN-AP (at concentrations from 0 to 100 µM) at 25 °C for 1 h. EFNB2-Fc bound to the cells was probed with phycoerythrin-labeled anti-Fc antibody and analyzed by flow cytometry. (E) Bound EFNB2-Fc as a function of BIDEN-AP concentration. […]
A2780cp20 ovarian cancer cells (1×10^6 cells/mL) were incubated with EFNB2-Fc (20 nM) and BIDEN-AP at concentrations ranging from 0 to 100 µM at 25 °C for 1 h. After washings, EFNB2-Fc bound to the cells were probed with phycoerythrin (PE)-labeled anti-Fc antibody and analyzed by flow cytometry. Binding of BIDEN-AP to A2780cp20 cells was determined by its capacity to displace EFNB2-Fc’s binding to the tumor cells, measured by decreased PE fluorescence signal. Cells were analyzed in a Cellquest fluorocytometer (BD Bioscience, San Jose, CA). […]
In general terms: A flow cytometer gives signals particle by particle.

Structures are written as SMILES. Non-standard residues stand in square brackets, D forms with d. Residues, ends and D or L forms follow the SMILES beside them.

The IC50 is the point on the concentration scale where inhibition reaches its midpoint. Low values mean higher potency, high ones lower potency. As for `CC[C@H](C)[C@H](NC(=O)[C@@H]1CCCN1C(=O)CNC(=O)[C@H](CC(N)=O)NC(=O)[C@@H]1CCCN1C(=O)[C@H](CO)NC(=O)[C@H](Cc1ccccc1)NC(=O)[C@H](CC(C)C)NC(=O)[C@@H](Cc1ccc(O)cc1)NC(=O)[C@H](CC(N)=O)NC(=O)[C@@H](N)[C@@H](C)O)C(=O)N[C@@H](C)C(=O)N[C@@H](CCCNC(=N)N)C(=O)N[C@@H](C)C(=O)N[C@@H](Cc1c[nH]c2ccccc12)C(N)=O` [BIDEN-AP] (H-TN[dY]LFSPNGPIARAW-NH2), the “body weight change compared to control group” value in the data set with MDA-HGSC-1 PDX tumor was “did not cause body weight change”. In data set [1], this compound registered an IC50 of about 1 µM.

(Values after paper PMC6965176, “Targeting Forward and Reverse EphB4/EFNB2 Signaling by a Peptide with Dual Functions” (Scientific Reports, 2020).)
